Assay results taken from paper PMC9404985, “Development of Dicationic Bisguanidine-Arylfuran Derivatives as Potent Agents against Gram-Negative Bacteria” (Antibiotics, 2022).
Read-outs that look alike come from different tables or passages of the source.

Experiments:
[1] = tested on: P. aeruginosa (CCUG #17619); assay: Antibacterial activity against isolates (Omnilog, Biolog redox dye); assay type: cell-based, Pseudomonas aeruginosa
Experimental: (§1) The antibacterial activities of eight compounds (1, 3, 4, 6, 8, 10, 16, and 17) were tested against 10 different isolates of Gram-negative bacteria from human and other sources, two E. coli (CCUG #67180 and CCUG #17620/ATCC #25922, control strain), two K. pneumoniae (CCUG #58547 and CCUG #225T), two P. aeruginosa (CCUG #17619 and CCUG #59347), two A. baumannii (CCUG #57035 and CCUG #57250), E. cloacae (CCUG #6323T), and E. hormaechei (CCUG #58962) in a 96-well plate format. The compounds to test were 3-fold diluted in six steps in cation-adjusted Mueller-Hinton (ca-MH) broth to final concentrations spanning from 30 to 0.12 µM, i.e., a 1667–416,667 times dilution from the 50 mM stocks. Bacterial mass from the ten isolates grown overnight on horse blood or Mueller–Hinton agar plates was suspended in ca-MH and adjusted to a final inoculum cell density of ~5 × 10^5 CFU/mL. For all assays, Biolog redox dye A diluted 100× from the stock solution was used for measurements of all ten isolates (up to a total volume of 120 µL per well). All plates included one well per isolate with only inoculum and dye but no test compound (i.e., positive control) and one well per isolate with inoculum, dye and DMSO diluted 1667×, corresponding to the DMSO concentration in the wells with the highest concentration of test compound. All measurements were performed using the Omnilog microplate reader (Biolog, Hayward, CA, USA) where the 96-well plates were read at 15 min intervals for a total of 24 h at 37 °C.

[2] = tested on: P. carotovorum (NBRC/ATCC #3380); assay: Antibacterial resazurin assay, laboratory strain
[3] = Cytotoxicity assay (PrestoBlue) MCF-7; assay type: cell-based; details: human, MCF-7 cells (breast cancer cell line), 24 h incubation
Experimental: (§2) The cytotoxicity levels of all compounds were evaluated against human Michigan Cancer Foundation-7 (MCF-7) and Hepatoma G2 cell line (HepG2) cell lines. MCF-7 is an extensively characterized breast cancer cell line isolated in 1970 [41], while HepG2 cells were derived from a hepatoma in 1975 [42]. Both cell lines grow robustly during in vitro culture and have been widely used for cytotoxicity testing. Cells of hepatic origin, such as HepG2, are of particular relevance for toxicity studies as many drugs accumulate in the liver during metabolic conversion. Cells were grown in Dulbecco’s Modified Eagle Medium supplemented with 10% fetal calf serum and kept in exponential growth, as previously reported. Before the assay, cells were reseeded into 96-well microtiter plates at a density allowing continued exponential growth and let to settle for 24 h. The compounds were added from a stock solution in DMSO, for a final concentration of 0.3% v/v of the solvent in the culture medium. After 24 h of incubation in presence of the compound, cell viability was assayed using PrestoBlue Cell Viability Reagent (resazurin-based solution, ThermoFisher, Waltham, MA, USA) according to the manufacturer’s instructions. […] Each assay contained a DMSO control at the equivalent starting concentration, positive control (uninhibited cell growth) and negative control (cell medium only). Survival was expressed as percentage of the solvent-only control. […] The Selectivity Index (SI) for each compound and bacterial strain was calculated as the ratio between the mean of the EC50 values for the two human cell lines and the EC50 for the bacterial strain in question ((EC50 MCF-7 + EC50 HepG2)/2)/EC50 bacterial strain).

[4] = tested on: E. coli MG1655 (CGSC #6300); assay: Antibacterial resazurin assay, laboratory strain
[5] = tested on: B. subtilis (NBRC/ATCC #111470); assay: Antibacterial resazurin assay, laboratory strain; details: Bacillus subtilis, ATCC111470, 18 h
[6] = tested on: P. aeruginosa (CCUG #59347); assay: Antibacterial activity against isolates (Omnilog, Biolog redox dye); assay type: cell-based, Pseudomonas aeruginosa
Experimental: as §1, with “The compounds to test were 3-fold diluted in six steps in cation-adjusted Mueller-Hinton (ca-MH) broth to final concentrations spanning from 30 to 0.12 µM, i.e., a 1667–416,667 times dilution from the 50 mM stocks.” left out

[7] = tested on: K. pneumoniae (CCUG #58547); assay: as above; assay type: cell-based, Klebsiella pneumoniae
Experimental: as §1, with “The compounds to test were 3-fold diluted in six steps in cation-adjusted Mueller-Hinton (ca-MH) broth to final concentrations spanning from 30 to 0.12 µM, i.e., a 1667–416,667 times dilution from the 50 mM stocks.” left out

[8] = Cytotoxicity assay (PrestoBlue) HepG2; assay type: cell-based; details: human, HepG2 cells (hepatoma cell line), 24 h incubation
Experimental: as §2

[9] = tested on: P. caledonica (NBRC/ATCC #102488); assay: Antibacterial resazurin assay, laboratory strain
[10] = Pseudomonas aeruginosa, CCUG17619, ca-MH broth, 24 h, 37 °C
[11] = SI = ((EC50 MCF-7 + EC50 HepG2)/2)/EC50 bacterial strain
[12] = mean of MCF-7 and HepG2 EC50 over bacterial EC50, laboratory strain
[13] = Pseudomonas aeruginosa, CCUG59347, ca-MH broth, 24 h, 37 °C
[14] = Klebsiella pneumoniae, CCUG58547, ca-MH broth, 24 h, 37 °C

## COc1cc(NC(=N)N)ccc1-c1ccc(-c2ccc(NC(=N)N)cc2OC)o1 [Compound 6, 2,5-Bis(4-guanidino-2-methoxyphenyl)furan]
[1]; [10]
  EC50: 24.6 µM
  EC90: 28.7 µM
[1]; [11]
  Selectivity index P. aeruginosa (CCUG #17619): 5.9
[2]; Pectobacterium carotovorum, ATCC3380, 18 h, read-out: Pcar EC50, laboratory strain, 18 h, 37 °C, AlamarBlue
  EC50: ~28.5 µM
[2]; Pectobacterium carotovorum, ATCC3380, 18 h, read-out: Pcar EC90
  EC90: 45 µM
[2]; [12]
  Selectivity index P. carotovorum: 5.1
[2]; read-out: Pcar EC50, laboratory strain, 18 h, 37 °C, AlamarBlue
  EC50: 28.4 µM
[3]
  EC50 at 24 h: 74.7 µM
[4]; Escherichia coli, MG1655, 18 h, read-out: Eco EC50
  EC50: 35.7 µM
[4]; Escherichia coli, MG1655, 18 h, read-out: Eco EC90
  EC90: 76.3 µM
[4]; [12]
  Selectivity index E. coli: 4.0
[5]; read-out: Bsu EC50
  EC50: > 300 µM
[5]; read-out: Bsu EC90
  EC90: > 300 µM
[6]; [13]
  EC50: 54.8 µM
  EC90: 65.3 µM
[6]; [11]
  Selectivity index P. aeruginosa (CCUG #59347): 2.6
[7]; [14]
  EC50: 13 µM
  EC90: 13.7 µM
[7]; [11]
  Selectivity index K. pneumoniae (CCUG #58547): 11.1
[8]
  EC50 at 24 h: 213 µM
[9]; Paraburkholderia caledonica, ATCC102488, 18 h, read-out: Pcal EC50
  EC50: 25.6 µM
[9]; Paraburkholderia caledonica, ATCC102488, 18 h, read-out: Pcal EC90
  EC90: 35.6 µM
[9]; [12]
  Selectivity index P. caledonica: 5.6
